From patent US8440830B2, “Tetrahydro-fused pyridines as histone deacetylase inhibitors” (4SC AG, priority 2007, dated 2013)
Read-outs that look alike come from different tables or passages of the source.

Assays:
[1] = system: A549 NSCLC cells; assay: Cell cycle analysis by flow cytometry; type: cell-based, human; settings: A549, 24 h treatment
Procedure: A549 NSCLC cells (ATTC CCL-185) are cultivated in DMEM with high glucose (supplemented with 10% FBS) at 5% CO2 and 37° C. in a humidified atmosphere under standard cell culture conditions. 24 h before compound treatment, cells are seeded at 5×10^4 cells/ml (=5×10^5 cells/10 cm cell culture dish) to allow logarithmic proliferation during the experiment. After 24 h, cells were treated with test compound or 0.5 vol % DMSO as a control. After 24 h and 48 h treatment, the culture medium is collected and detached, floating cells are collected by short centrifugation (5 min at 1200 rpm). Attached cells are washed once with 5 ml PBS, detached by treatment with 3 ml trypsin/EDTA solution (short incubation for 3-5 min) and—together with detached, floating cells—transferred into 15 ml Falcon tubes. The cell culture dish is washed with 10 ml DMEM to collect all remaining cells. After centrifugation for 5 min at 1200 rpm at room temperature, the supernatant is discarded and the cell pellet washed twice with 10 ml PBS. The supernatant is discarded, the cells resuspended in 4 ml ice-cold fixation solution (70 vol % ethanol, 30 vol % H2O; stored at −20° C.) and stored at −20° C. overnight. Next, 10 ml PBS (4° C.) is added to the cells, before centrifugation for 5 min at 1200 rpm (4° C.). The supernatant is discarded, the cell pellet washed once with 10 ml PBS (4° C.) and the cell pellet finally resuspended in about 1 ml staining solution (10 μg/ml RNAse A, 10 μg/ml propidiumiodide in PBS, final volume dependent on cell number). After incubation for 30 min at room temperature in the dark, cells are stored on ice and analyzed using the Becton Dickinson FACS Canto device. Analysis is done at an excitation of λ=488 nm with emission set as λ=600 nm.
Data analysis: Cells are analyzed according to size, granularity and propidiumiodide intensity. Size and granularity of cells are determined by measurement of forward scatter (FSC) and side scatter (SSC) of the λ=488 nm excitation light, respectively. To discriminate cells with 4N DNA content from cell doublets (two attached cells with 2N DNA content each), the ratio between the area under the propidiumiodide peak (PE-A) and the height of the propidiumiodide peak (PE-H) for each cell is determined. Cell doublets need more time to pass through the laser beam, which causes a broadening of the propidiumiodide peak and an increase of the ratio PE-A/PE-H. Using this analysis, cells in 4N and cell doublets appear as distinct clouds in a scatter plot and are excluded from the analysis. Thus, the area under the propidiumiodide peak at λ=600 nm (PE-A) is a measure for the DNA content of the cells. PE-A is blotted against the measured cell number in a histogram in order to determine the percentage of analyzed cells in an individual stage of the cell cycle.

[2] = system: histone H3 hyperacetylation in HeLa cervical carcinoma cells; assay: Cellular histone H3 hyperacetylation assay; type: cell-based; settings: Homo sapiens, 24 h treatment
Text: To assess the cellular efficacy of a histone deacetylase inhibitor in vitro, an assay is set up in black clear-bottom 96-well plates and optimized for use on the Cellomics “ArrayScan II” platform for a quantitative calculation of histone acetylation. The protocol uses a polyclonal rabbit antibody, specifically binding to acetylated lysine 1-20 (including K 9 and K14) of human histone H3 on fixed cells with an Alexa Fluor 488 labeled goat anti rabbit-IgG used for counterstaining 5×10^3 HeLa cervical carcinoma cells/well (ATCC CCL-2) in 200 μl Dulbecco's modified Eagle's medium (DMEM) containing 10% fetal calf serum are seeded at day 1 in Packard view plates and incubated for 24 h under standard cell culture conditions. On day 2, 1 μl test compound (200× final concentration) is added and incubation continued for further 24 h. On day 3, the culture medium is discarded and attached cells fixed for 15 min at room temperature by addition of 100 μl fixation buffer (3.7% v:v formaldehyde in phosphate buffered saline/PBS). After discarding the fixation buffer and one wash with blocking solution (1% BSA, 0.3% Tween 20 in PBS), cells are permeabilized at room temperature by addition of 100 μl /well permeabilization buffer (30.8 mM NaCl, 0.54 mM Na2HPO4, 0.31 mM KH2PO4, 0.1% v:v Triton X-100) for 15 min at room temperature. After discarding the permeabilization buffer and washing twice with 100 μl/well blocking solution at room temperature, the 1st antibody (anti-K1-20 histone H3 antibody, Calbiochem No. 382158) in blocking solution (50 μl/well) is added. After incubation for 1 h at room temperature, the wells are washed twice at room temperature with 100 μl/well blocking solution before addition of the 2nd antibody (goat-anti-rabbit Alexa Fluor 488; MoBiTec No. A -11008) in blocking solution (50 μl well). After further incubation for 1 h at room temperature, wells are washed twice with 100 μl/well blocking solution at room temperature. Finally, 100 μl/well PBS are added and image analysis performed on the Cellomics “ArrayScan II” platform. For EC50 determination, the percentage of positive cells showing nuclear fluorescence is determined and EC50 calculation done from concentration-effect curves by means of non-linear regression. For calibration, a positive (reference HDAC inhibitors like SAHA or NVP LBH-589) and a negative control were included.

[3] = system: A549 NSCLC cells; assay: Cellular cytotoxicity assay (Alamar Blue), A549; type: cell-based; settings: Homo sapiens, 72 h, upper end given as ≧100, read-out: IC50 (μM), cytotoxicity towards A549 NSCLC cells
In short: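 Cells were dosed 24 h after seeding with semi-log compound dilutions in quadruplicate, then incubated 72 h at 37 °C, 5% CO2. Viability read by Resazurin reduction (4 h, fluorescence 544/590 nm) relative to untreated 0.5% DMSO controls; IC50 by non-linear regression.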

[4] = system: HDACs 4 to 8; settings: read-out: IC50 HDACs 4 to 8; Kalita et al. 2005; cited from earlier work
[5] = target: T1, HDAC11 (Homo sapiens, UniProt Q96DB2); settings: Kalita et al. 2005; one range for HDAC1, 2, 3 and 11; cited from earlier work
T1 sequence (Q96DB2 1-347): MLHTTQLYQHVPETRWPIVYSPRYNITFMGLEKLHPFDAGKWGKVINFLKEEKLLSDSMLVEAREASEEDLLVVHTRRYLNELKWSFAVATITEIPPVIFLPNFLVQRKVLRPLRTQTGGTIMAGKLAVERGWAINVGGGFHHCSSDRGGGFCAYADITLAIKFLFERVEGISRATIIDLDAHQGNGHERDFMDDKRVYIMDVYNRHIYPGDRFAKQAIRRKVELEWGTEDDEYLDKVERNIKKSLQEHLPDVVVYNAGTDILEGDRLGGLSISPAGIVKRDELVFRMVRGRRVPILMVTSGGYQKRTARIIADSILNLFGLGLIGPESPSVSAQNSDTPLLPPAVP

[6] = system: fully transformed malignant cancer cell lines; assay: Anti-proliferative activity, selection of cell lines (Alamar Blue); type: cell-based; settings: Homo sapiens, 72 h, mean over cell lines, read-out: Mean IC50 values as calculated for fully malignant cancer cell lines
Procedure: (§1) The anti-proliferative activity of the histone deacetylase inhibitory compounds as described herein, is evaluated using the following cell lines: HeLa and HeLa-KB (cervical carcinoma), H460 (non small cell lung cancer), A549 (non-small cell lung cancer), MCF7 (breast carcinoma), MCF10A (normal, non tumorigenic breast epithelial), MDA-MB468 (breast carcinoma), MDA-MB435 (breast carcinoma), MDA-MB231 (breast carcinoma), SKBR-3 (breast carcinoma), SKOV-3 (ovarial carcinoma), A-2780 (ovarial carcinoma), RKO (colon carcinoma), HCT-15 (colon carcinoma), HCT-116 (colon carcinoma), PC3 (prostate carcinoma), BPH1 (benign prostate hyperplasia), AsPC1 (pancreatic carcinoma), Ca127 (tongue carcinoma), A-431 (vulva carcinoma), Hec1A (endometrial carcinoma), Saos-2 (osteosarcoma), U87MG (glioblastoma), WM266-4 (melanoma), K562 (chronic myeloid leukemia), EOL1 (acute hypereosinophilic myeloid leukemia), CCRF-CEM and CCRF-CEM VCR1000 (acute lymphoblastic leukemia sensitive and resistant towards Vincristine). For quantification of cellular proliferation/living cells the Alamar Blue (Resazurin) cell viability assay is applied (O'Brien et al. Eur J Biochem 267, 5421-5426, 2000). In this assay Resazurin is reduced to the fluorescent resorufine by cellular dehydrogenase activity, correlating with viable, proliferating cells. The examples are dissolved as 20 mM solutions in dimethylsulfoxide (DMSO) and subsequently diluted in semi-logarithmic steps. Cell lines are seeded at respective density into 96 well flat bottom plates in a volume of 200 μl per well. 24 h after seeding 1 μl each of the compound dilutions are added into each well of the 96 well plate. Each compound dilution is tested as quadruplicates. Wells containing untreated control cells are filled with 200 μl DMEM medium containing 0.5% v:v DMSO. The cells are then incubated with the compounds for 72 h at 37° C. in a humidified atmosphere containing 5% carbon dioxide. To determine the viability of the cells, 20 μl of a Resazurin solution (Sigma; 90 mg/l) are added. After 4 h incubation at 37° C. the fluorescence is measured at an extinction of λ=544 nm and an emission of λ=590 nm. For the calculation of the cell viability the emission value from untreated cells is set as 100% viability and the emission rates of treated cells are set in relation to the values of untreated cells. Viabilities are expressed as % values. The corresponding IC50 values of the compounds for cytotoxic activity are determined from the concentration-effect curves by means of non-linear regression.
The anti-proliferative activity of compounds from examples 1, 2, 3, 12 and 150 is evaluated by using a broad selection of non-malignant cell lines and fully transformed malignant cancer cell lines.

[7] = system: RKO colon carcinoma cells with conditional p21^waf1 expression; assay: Cell cycle dependent cytotoxicity, RKO exop21 cell system; type: cell-based; settings: Homo sapiens, 72 h
Procedure: as §1
For determination of cell-cycle dependent cytotoxicity, the RKO exop21 cell system is applied (Schmidt et al. Oncogene 19: 2423-2429, 2000). Briefly, RKO cells with/without p21^waf1 expression (2×10^4 cells/well induced, 6×10^3 cells/well not induced) are treated with the compounds for 72 h and metabolic activity quantified as described before. The expression of p21^waf1 was induced by treatment with Pronasterone A, causing a complete proliferation arrest of RKO cells in the G1 and G2 phases of the cell division cycle.

[8] = system: acute human T-lymphoblastic leukemia cell line CCRF-CEM; settings: about 10.000 unique accession numbers, Peart et al. 2005; cited from earlier work
[9] = read-out: EC50, induction of histone H3 hyperacetylation
[10] = read-out: −lg EC50, induction of histone H3 hyperacetylation

EC50 [2, 9] [µM]	EC50 [2, 10] [µM]	IC50 [6] [µM]	SMILES	concentration inducing arrest in G1, depletion of cells in the S-phase and reduction of cells in the G2/M-phase [1]	IC50 [3] [µM]	IC50 [4] [µM]	IC50 [5] [µM]	IC50 ([7]; RKO arrested, p21^waf1 expressed, read-out: RKO arrested (p21^waf1 expressed) IC50) [µM]	IC50 ([7]; RKO proliferating, p21^waf1 not induced, read-out: RKO proliferating IC50) [µM]	share of analyzed genes whose expression was changed [8] [%]
0.15 to 15	0.251 to 15.8		Nc1ccccc1NC(=O)c1nc2c(s1)CN(C(=O)OCc1cccnc1)CC2 [Example 189, Pyridin-3-ylmethyl 2-[(2-aminophenyl)carbamoyl]-6,7-dihydro[1,3]thiazolo[5,4-c]pyridine-5(4H)-carboxylate]	around 3 μM	≥ 0.2					
0.15 to 15	0.251 to 15.8		Cc1ccc(OC(=O)N2CCc3nc(C(=O)Nc4ccccc4N)sc3C2)cc1 [Example 182, 4-methylphenyl 2-[(2-aminophenyl)carbamoyl]-6,7-dihydro[1,3]thiazolo[5,4-c]pyridine-5(4H)-carboxylate]	around 3 μM	≥ 0.2					
0.15 to 15	0.251 to 15.8		COc1ccc(S(=O)(=O)N2CCc3nc(C(=O)Nc4ccccc4N)sc3C2)cc1 [Example 153, N-(2-aminophenyl)-5-[(4-methoxyphenyl)sulfonyl]-4,5,6,7-tetrahydro[1,3]thiazolo[5,4-c]pyridine-2-carboxamide]	around 3 μM	≥ 0.2					
			Nc1ccccc1NC(=O)c1ccc(CNc2nccc(-c3cccnc3)n2)cc1 [MGCD0103]			> 20	0.1 to 2			
0.15 to 15	0.251 to 15.8	2.4 to 5.4	Cc1ccc(S(=O)(=O)N2CCc3nc(C(=O)Nc4ccccc4N)sc3C2)cc1 [Example 150, N-(2-aminophenyl)-5-[(4-methylphenyl)sulfonyl]-4,5,6,7-tetrahydro[1,3]-thiazolo[5,4-c]pyridine-2-carboxamide]		≥ 0.2			1.1 to 4.9	1.1 to 4	
			O=C(CCCCCCC(=O)Nc1ccccc1)NO [SAHA, suberoylanilide hydroxamic acid]							22.1
